According to patent US20250214942A1, “INHIBITORS OF RECEPTOR INTERACTING PROTEIN KINASE I FOR THE TREATMENT OF DISEASE” (Board of Regents, The University of Texas System, priority 2019, published 2025):

These compounds were tested on human monocytic cell line U937 (assay: Human U937 cellular necroptosis assay (TNFalpha + z-VAD-FMK, Cell Titer-Glo viability)). Conditions: Homo sapiens, U-937, 22 h, U937 cells, 25 ng/mL human TNFalpha + 25 μM z-VAD-FMK, read-out: hU937 Avg IC50.
Type: cell-based
Description: The human monocytic cell line U937 (CRL-1593.2) was purchased from ATCC. The cells were routinely maintained in RPMI-1640 Medium (Gibco, Catalog #11875-093) supplemented with 10% heat inactivated fetal bovine serum (Gibco, Catalog #16140-071), 100 units/mL penicillin and 100 μg/mL streptomycin (Gibco, Catalog #15140-122), in a humidified incubator (37° C., 5% CO2). For the assay, cells were resuspended in RPMI-1640 phenol red free Media (Gibco, Catalog #11835-030) supplemented with 10% fetal bovine serum (Sigma, Catalog #F2442), 100 units/mL penicillin and 100 ug/mL streptomycin. Cells were stimulated with 25 ng/mL human TNFalpha (Cell Sciences, Catalog #CSI15659B) and 25 μM z-VAD-FMK (R&D Systems, Catalog #FMK001) followed by seeding 5000 cells per well in a volume of 40 μL to a white, CulturPlate-384 (Perkin Elmer, Catalog #6007680). Stock solutions of the test compounds were prepared in 100% DMSO (Sigma, Catalog #D2650) and serially diluted 1:3 using 100% DMSO. Compounds were additionally diluted 1:40 in assay medium, and 10 μL/well was transferred to the plate. Following the compound addition the plate was incubated at 37° C. and 5% CO2 for 22 h. After 22 h, viability was assessed with the addition of 20 μL of Cell Titer-Glo 2.0 (Promega, Catalog #G9243). The tissue culture plate was shaken on an orbital shaker at 300 RPM for 15 minutes at rt in the dark. Luminescence was measured using a PerkinElmer Envision™ plate reader. IC50 values were calculated using a four-parameter logistic curve fit using Genedata Screener software. Results are shown below in Table 3, where the average value across multiple runs is given.
Compound `N#Cc1ccc2c(cnn2CC23CC(C(=O)N4N=CCC4c4ccc(F)cc4)(C2)C3)c1` (stereo not drawn) [Example 244, 1-((3-(5-(4-fluorophenyl)-4,5-dihydro-1H-pyrazole-1-carbonyl)bicyclo[1.1.1]pentan-1-yl)methyl)-1H-indazole-5-carbonitrile] has an IC50 of 37 nM. In the case of `N#Cc1cnc(OCC23CC(C(=O)N4N=CCC4c4ccc(Cl)cc4)(C2)C3)cn1` (stereo not drawn) [Example 310, 5-((3-(5-(4-chlorophenyl)-4,5-dihydro-1H-pyrazole-1-carbonyl)bicyclo[1.1.1]pentan-1-yl)methoxy)pyrazine-2-carbonitrile], the IC50 is reported as 22 nM. Compound `N#Cc1ccc(OCC23CC(C(=O)N4N=CCC4c4cnccn4)(C2)C3)nc1` (stereo not drawn) [Example 280, 6-((3-(5-(pyrazin-2-yl)-4,5-dihydro-1H-pyrazole-1-carbonyl)bicyclo[1.1.1]pentan-1-yl)methoxy)nicotinonitrile] has an IC50 of 106 nM. `Cc1ccc(C2CC=NN2C(=O)C23CC(COc4cnc(C#N)cn4)(C2)C3)nc1` (stereo not drawn) [Example 278, 5-((3-(5-(5-methylpyridin-2-yl)-4,5-dihydro-1H-pyrazole-1-carbonyl)bicyclo[1.1.1]-pentan-1-yl)methoxy)pyrazine-2-carbonitrile] gave an IC50 of 97 nM. With `COc1cc(C(O)C23CC(C(=O)N4N=CCC4c4cc(F)cc(F)c4)(C2)C3)ncn1` (stereo not drawn) [Example 232, (5-(3,5-difluorophenyl)-4,5-dihydro-1H-pyrazol-1-yl)(3-(hydroxy(6-methoxy-pyrimidin-4-yl)methyl)-bicyclo[1.1.1]pentan-1-yl)-methanone] the IC50 was 8110 nM. `COc1ccc2c(cnn2CC23CC(C(=O)N4N=CCC4c4cc(F)cc(F)c4)(C2)C3)n1` (stereo not drawn) [Example 215, (5-(3,5-difluorophenyl)-4,5-dihydro-1H-pyrazol-1-yl)(3-((5-methoxy-1H-pyrazolo[4,3-b]pyridin-1-yl)methyl)bicyclo-[1.1.1]pentan-1-yl)methanone] showed an IC50 of 80 nM. `N#Cc1cnc(OCC23CC(C(=O)N4N=CCC4c4cccc(Cl)c4Cl)(C2)C3)cn1` (stereo not drawn) [Example 311, 5-((3-(5-(2,3-dichlorophenyl)-4,5-dihydro-1H-pyrazole-1-carbonyl)bicyclo[1.1.1]pentan-1-yl)methoxy)pyrazine-2-carbonitrile] gave an IC50 of 40 nM. Compound `N#Cc1cnc(NCC23CC(C(=O)N4N=CCC4c4cc(F)cc(F)c4)(C2)C3)cn1` (stereo not drawn) [Example 205, 5-(((3-(5-(3,5-Difluorophenyl)-4,5-dihydro-1H-pyrazole-1-carbonyl)bicyclo[1.1.1]pentan-1-yl)methyl)amino)pyrazine-2-carbonitrile] has an IC50 of 436 nM. For `N#Cc1cnc(OCC23CC(C(=O)N4[C@@H]5C[C@@H]5C[C@H]4c4cc(F)cc(F)c4)(C2)C3)cn1` [Example 209, 5-((3-((1R,3S,5R)-3-(3,5-difluorophenyl)-2-azabicyclo[3.1.0]hexane-2-carbonyl)bicyclo[1.1.1]pentan-1-yl)methoxy)pyrazine-2-carbonitrile], the IC50 was 362 nM. In the case of `Cc1cnc(C2CC=NN2C(=O)C23CC(Cn4ncc5nc(C#N)ccc54)(C2)C3)cn1` (stereo not drawn) [Example 235, 1-((3-(5-(5-methylpyrazin-2-yl)-4,5-dihydro-1H-pyrazole-1-carbonyl)bicyclo[1.1.1]-pentan-1-yl)methyl)-1H-pyrazolo[4,3-b]pyridine-5-carbonitrile], the IC50 is reported as 339 nM. For `Cc1ccc(C2CC=NN2C(=O)C23CC(COc4cnc(C#N)cn4)(C2)C3)cn1` (stereo not drawn) [Example 289, 5-((3-(5-(6-methylpyridin-3-yl)-4,5-dihydro-1H-pyrazole-1-carbonyl)bicyclo[1.1.1]-pentan-1-yl)methoxy)pyrazine-2-carbonitrile], the IC50 was 281 nM. For `Cc1c(F)cc([C@H]2CC=NN2C(=O)C23CC(COc4ccc(C#N)cn4)(C2)C3)cc1F` [Example 266, (R)-6-((3-(5-(3,5-difluoro-4-methylphenyl)-4,5-dihydro-1H-pyrazole-1-carbonyl)-bicyclo[1.1.1]pentan-1-yl)-methoxy)nicotinonitrile], the IC50 was 1800 nM. Compound `N#Cc1cnc2c(ccn2CC23CC(C(=O)N4N=CCC4c4cc(F)cc(F)c4)(C2)C3)n1` (stereo not drawn) [Example 211, 5-((3-(5-(3,5-difluorophenyl)-4,5-dihydro-1H-pyrazole-1-carbonyl)bicyclo[1.1.1]pentan-1-yl)methyl)-5H-pyrrolo[2,3-b]pyrazine-2-carbonitrile] has an IC50 of 16 nM. Work on `Cc1ccc(C2CC=NN2C(=O)C23CC(Cn4ncc5cc(C#N)ccc54)(C2)C3)cc1F` (stereo not drawn) [Example 239, 1-((3-(5-(3-fluoro-4-methyl-phenyl)-4,5-dihydro-1H-pyrazole-1-carbonyl)bicyclo-[1.1.1]pentan-1-yl)methyl)-1H-indazole-5-carbonitrile] yielded an IC50 of 10 nM. `Cc1ccc(C2CC=NN2C(=O)C23CC(COc4ccc(C#N)cn4)(C2)C3)c(F)c1` (stereo not drawn) [Example 271, 6-((3-(5-(2-fluoro-4-methyl-phenyl)-4,5-dihydro-1H-pyrazole-1-carbonyl)bicyclo-[1.1.1]pentan-1-yl)methoxy)-nicotinonitrile] was tested, and the IC50 was 20 nM. With `Cc1cc2n(CC34CC(C(=O)N5N=CCC5c5cc(F)cc(F)c5)(C3)C4)ccn2n1` (stereo not drawn) [Example 216, (5-(3,5-difluorophenyl)-4,5-dihydro-1H-pyrazol-1-yl)(3-((6-methyl-1H-imidazo[1,2-b]pyrazol-1-yl)methyl)bicyclo-[1.1.1]pentan-1-yl)methanone] the IC50 was 92 nM. Compound `N#Cc1ccc(OCC23CC(C(=O)N4CC(F)CC4c4cccc(F)c4)(C2)C3)nc1` (stereo not drawn) [Example 288, 6-((3-(4-fluoro-2-(3-fluoro-phenyl)pyrrolidine-1-carbonyl)bicyclo[1.1.1]pentan-1-yl)methoxy)nicotinonitrile] has an IC50 of 276 nM. For `N#Cc1cnc(OCC23CC(C(=O)N4N=CCC4c4ccc(F)c(CO)c4)(C2)C3)cn1` (stereo not drawn) [Example 207, 5-((3-(5-(4-Fluoro-3-(hydroxymethyl)phenyl)-4,5-dihydro-1H-pyrazole-1-carbonyl)bicyclo[1.1.1]pentan-1-yl)methoxy)pyrazine-2-carbonitrile], the IC50 was 633 nM. `COc1cnnc(OCC23CC(C(=O)N4N=CCC4c4cc(F)cc(F)c4)(C2)C3)c1` (stereo not drawn) [Example 329, (5-(3,5-difluorophenyl)-4,5-dihydro-1H-pyrazol-1-yl)(3-(((5-methoxypyridazin-3-yl)-oxy)methyl)bicyclo[1.1.1]-pentan-1-yl)methanone] showed an IC50 of 1290 nM. With `N#Cc1ccc2c(cnn2CC23CC(C(=O)N4N=CCC4c4ccc(C#N)s4)(C2)C3)c1` (stereo not drawn) [Example 251, 1-((3-(5-(5-cyanothiophen-2-yl)-4,5-dihydro-1H-pyrazole-1-carbonyl)bicyclo[1.1.1]-pentan-1-yl)methyl)-1H-indazole-5-carbonitrile] the IC50 was 397 nM. For `COc1cc(C(F)C23CC(C(=O)N4N=CCC4c4cc(F)cc(F)c4)(C2)C3)ncn1` (stereo not drawn) [Example 229, (5-(3,5-difluorophenyl)-4,5-dihydro-1H-pyrazol-1-yl)(3-(fluoro(6-methoxypyrimidin-4-yl)methyl)bicyclo[1.1.1]-pentan-1-yl)methanone], the IC50 was 5060 nM. `Cc1cc(F)c(C2CC=NN2C(=O)C23CC(COc4cnc(C#N)cn4)(C2)C3)cc1F` (stereo not drawn) [Example 195, 5-((3-(5-(2,5-Difluoro-4-methylphenyl)-4,5-dihydro-1H-pyrazole-1-carbonyl)bicyclo[1.1.1]pentan-1-yl)methoxy) pyrazine-2-carbonitrile] was tested, and the IC50 was 1.5 nM. `CC(c1cc(F)ccc1F)N(C)C(=O)C12CC(COc3cnc(C#N)cn3)(C1)C2` (stereo not drawn) [Example 301, 3-(((5-cyanopyrazin-2-yl)oxy)-methyl)-N-(1-(2,5-difluoro-phenyl)ethyl)-N-methyl-bicyclo[1.1.1]pentane-1-carboxamide] gave an IC50 of 7740 nM. `Cc1nc(C2CC=NN2C(=O)C23CC(COc4ccc(C#N)cn4)(C2)C3)ccc1F` (stereo not drawn) [Example 315, 6-((3-(5-(5-fluoro-6-methyl-pyridin-2-yl)-4,5-dihydro-1H-pyrazole-1-carbonyl)bicyclo-[1.1.1]pentan-1-yl)methoxy)-nicotinonitrile] was tested, and the IC50 was 666 nM. `N#Cc1cnc(OCC23CC(C(=O)NCc4cc(F)ccc4F)(C2)C3)cn1` [Example 298, 3-(((5-cyanopyrazin-2-yl)oxy)-methyl)-N-(2,5-difluoro-benzyl)bicyclo[1.1.1]pentane-1-carboxamide] gave an IC50 of 6700 nM. `Cc1ccc(C2CC=NN2C(=O)C23CC(Cn4ncc5cc(C#N)ccc54)(C2)C3)cn1` (stereo not drawn) [Example 249, 1-((3-(5-(6-methylpyridin-3-yl)-4,5-dihydro-1H-pyrazole-1-carbonyl)bicyclo[1.1.1]-pentan-1-yl)methyl)-1H-indazole-5-carbonitrile] gave an IC50 of 299 nM. `N#Cc1nc(C2CC2)nn1CC12CC(C(=O)N3N=CCC3c3cc(F)cc(F)c3)(C1)C2` (stereo not drawn) [Example 217, 3-cyclopropyl-1-((3-(5-(3,5-difluorophenyl)-4,5-dihydro-1H-pyrazole-1-carbonyl)-bicyclo[1.1.1]pentan-1-yl)-methyl)-1H-1,2,4-triazole-5-carbonitrile] showed an IC50 of 99 nM.
